Test results: PMC9172283 (Antiviral Research, 2022)

Tests used:
SARS-CoV-2 M^pro = SARS-CoV-2 M^pro (Severe acute respiratory syndrome coronavirus 2, UniProt P0DTD1); test: FRET-based SARS-CoV-2 M^pro activity assay in vitro; format: biochemical; settings: for Inhibitory effect on M^pro catalytic activity at fixed concentration: 100 μM, cut-off 50% of inhibition
SARS-CoV-2 = test: Plaque reduction assay; format: cell-based, SARS-CoV-2/NL/2020 strain; settings: ratio between CC50 and EC50; SARS-CoV-2, Vero E6 cells
[1] = MTT cell viability assay in Vero E6 cells; format: cell-based; settings: African green monkey

COc1ccc(C(=O)Nc2ccccc2C(=O)NC(C(=O)Nc2ccccc2)C(C)C)cc1 (centres unmarked) [Compound 7]
IC50 (SARS-CoV-2 M^pro): 111 ± 2.2 µM
Inhibitory effect on M^pro catalytic activity at fixed concentration (SARS-CoV-2 M^pro): exerted an inhibitory effect
SI, Selectivity Index (SARS-CoV-2): >10
CC50 at 72 h [1]: > 500 µM

CCOc1ccc(NC(=O)C(=O)NCCc2csc3nc(-c4cccs4)nn23)cc1 [Compound 1]
IC50 (SARS-CoV-2 M^pro): 142 ± 12 µM
Inhibitory effect on M^pro catalytic activity at fixed concentration (SARS-CoV-2 M^pro): exerted an inhibitory effect
SI, Selectivity Index (SARS-CoV-2): >10
CC50 at 72 h [1]: > 500 µM

CCNC(=O)[C@@H](NC(=O)c1ccccc1NC(=O)c1ccc(OC)cc1)C(C)C [Compound 34, (S)-N-(1-(Ethylamino)-3-methyl-1-oxobutan-2-yl)-2-(4-methoxybenzamido)benzamide]
SI, Selectivity Index (SARS-CoV-2): >5
CC50 at 72 h [1]: > 250 µM

CCN1CCN(C(C(=O)O)c2c[nH]c3ccc(NC(=O)CCC(=O)O)cc23)CC1 (centres unmarked) [Compound 14]
SI, Selectivity Index (SARS-CoV-2): >10
CC50 at 72 h [1]: > 500 µM

COc1ccc(-c2ocnc2C(=O)NCCCn2cncn2)cc1Cl [Compound 24]
Inhibitory effect on M^pro catalytic activity at fixed concentration (SARS-CoV-2 M^pro): not a significant inhibitory effect
CC50 at 72 h [1]: > 500 µM

O=C(CCC(=O)NNC(=O)C(c1ccccc1)c1ccccc1)NCc1ccccc1 [Compound 10]
IC50 (SARS-CoV-2 M^pro): 128 ± 18.8 µM
Inhibitory effect on M^pro catalytic activity at fixed concentration (SARS-CoV-2 M^pro): exerted an inhibitory effect
SI, Selectivity Index (SARS-CoV-2): >10
CC50 at 72 h [1]: > 500 µM

COc1ccc(Cc2nn3c([C@@H](CCCc4ccccc4)[C@@H](C)O)nc(C)c3c(=O)[nH]2)cc1OC [Compound 23]
Inhibitory effect on M^pro catalytic activity at fixed concentration (SARS-CoV-2 M^pro): not a significant inhibitory effect

COc1ccc2c(c1)c(CC(=O)O)c(C)n2C(=O)c1ccc(Cl)cc1 [Compound 21]
SI, Selectivity Index (SARS-CoV-2): >10
CC50 at 72 h [1]: > 500 µM

COc1ccc(NC2=NC(=O)CC(C(=O)NCc3ccccc3)N2)cc1 (centres unmarked) [Compound 13]
SI, Selectivity Index (SARS-CoV-2): >10
CC50 at 72 h [1]: > 500 µM

CC(NC(=O)C(=O)NCCN1CCOCC1)C(c1cccs1)N1CCN(c2ccccc2)CC1 (centres unmarked) [Compound 2]
SI, Selectivity Index (SARS-CoV-2): >10
CC50 at 72 h [1]: > 500 µM

CCOC(=O)C1=C(CN2CCCN(C(=O)OC(C)(C)C)CC2)NC(=O)NC1c1ccc(C)cc1 (centres unmarked) [Compound 15]
SI, Selectivity Index (SARS-CoV-2): 8
CC50 at 72 h [1]: 113 ± 3 µM

CCC(C)NC(=O)c1ccccc1NC(=O)c1ccc(C)c(S(=O)(=O)Nc2cccc(NC(=O)c3ccccc3)c2)c1 (centres unmarked) [Compound 30]
SI, Selectivity Index (SARS-CoV-2): >10
CC50 at 72 h [1]: > 500 µM

COc1ccc(C(=O)COC(=O)C(Cc2ccccc2)N2C(=O)C3C4C=CC(C4)C3C2=O)cc1 (centres unmarked) [Compound 18]
SI, Selectivity Index (SARS-CoV-2): >10
CC50 at 72 h [1]: > 500 µM

Nc1ncnc2c1ncn2[C@@H]1O[C@H](CSCC[C@H](N)C(=O)O)[C@@H](O)[C@H]1O [Compound 22]
SI, Selectivity Index (SARS-CoV-2): >10
CC50 at 72 h [1]: > 500 µM

COc1ccc(C(=O)CN(C(=O)c2ccc(Cl)cc2)N2C(=O)CCC2=O)cc1 [Compound 20]
SI, Selectivity Index (SARS-CoV-2): >10
CC50 at 72 h [1]: > 500 µM

O=C(Nc1ccccc1C(=O)NCc1ccccc1)c1cc(S(=O)(=O)N2CCOCC2)ccc1F [Compound 9]
SI, Selectivity Index (SARS-CoV-2): >10
CC50 at 72 h [1]: > 500 µM

COC(=O)C1=C(CN2CCN(C(=O)OC(C)(C)C)CC2)NC(=O)NC1c1ccccc1 (centres unmarked) [Compound 16]
SI, Selectivity Index (SARS-CoV-2): 10
CC50 at 72 h [1]: 401 ± 52 µM

CCOC(=O)C(NC(=O)COc1ccccc1)(Nc1nc2ccccc2s1)C(F)(F)F (centres unmarked) [Compound 8]
SI, Selectivity Index (SARS-CoV-2): 3
CC50 at 72 h [1]: 68.8 ± 15.4 µM

NC(=O)c1c(NC(=O)c2cnn3c(C(F)F)cc(-c4ccccc4)nc23)sc2c1CCCC2 [Compound 28]
SI, Selectivity Index (SARS-CoV-2): >5
CC50 at 72 h [1]: > 250 µM

CCOC(=O)C1=C(CN2CCC(NC(=O)OC(C)(C)C)CC2)NC(=O)NC1c1ccccc1 (centres unmarked) [Compound 17]
SI, Selectivity Index (SARS-CoV-2): >5
CC50 at 72 h [1]: 228 ± 6 µM

CC(=O)NCC(=O)NC1(C(=O)NC(c2ccccc2)c2ccccc2)CCCCC1 [Compound 11]
SI, Selectivity Index (SARS-CoV-2): >10
CC50 at 72 h [1]: > 500 µM
